Where two headings read alike, the source gives them in different places.
Columns and labels:
[1] = cat, in vivo
Protocol: Based on the dose administered in dogs, the selection of dosages for evaluating KPT-335 in cats was calculated using the Km factor, which adjusts drug doses across species based on body surface area (BSA) ([16]). […] For oral (p.o.) administration, single doses of 1 mg/kg BW and 2 mg/kg BW were tested across two groups. Additionally, an oral capsule group was administered at 0.2 mg/kg BW. […] The maximum safe dosage for dogs was determined to be 1.75 mg/kg BW, based on dosage conversion, the maximum safe dosage for cats was determined to be 2.33 mg/kg BW. Thus, we categorized the dosages as follows: 2 mg/kg BW was designated as the oral high-dose group, 1 mg/kg BW as the oral medium-dose group, and 0.2 mg/kg BW (1/10 of the recommended dose) as the oral low-dose group. These doses were determined based on the maximum safe dose in dogs and the solubility limitations of the drug. The smallest commercially available tablet contained 2.5 mg of KPT-335 and could not be divided, which meant that only whole tablets could be administered. Consequently, the 0.2 mg/kg BW dose could not be accurately achieved and was excluded from the tablet group trials. Only the 1 mg/kg BW and 2 mg/kg BW doses were included in the tablet groups. […]

[2] = cited from earlier work
[3] = Adverse reaction assessment in test cats (body weight, behavior, coat gloss); format: in vivo; conditions: all tested cats, i.v. 1 mg/kg BW and p.o. 0.2–2 mg/kg BW, single dose
Protocol: In this study, a parallel trial design was employed, 42 adult domestic cats (21 males and 21 females), aged 1 to 2 years and weighing 2.5 ± 0.25 kg. Cats were grouped by random number, with half male and female in each group, and all cats were determined to be systemically healthy during an initial screening visit 1 week prior to the experiment. They were acclimatized to the laboratory environment for 7 days before the study commenced. During this period, they were kept in solitary cages with free access to water. Cats in the fasting group were deprived of food for 12 h prior to and 2 h following drug administration, while those in the feeding group were fed twice a day. Food and water sources were consistent throughout the trail. During and at the end of the experiment, we systematically assessed the adverse reactions by recording parameters such as body weight, behavior, and coat gloss in all test cats both before and after the trial. These observations were conducted to evaluate whether any adverse reactions occurred. All procedures were reviewed and approved by the Institutional Animal Care and Use Committee of China Agricultural University (11305-23-E-002).

[4] = pKa (unpublished data); format: physicochemical; conditions: weak base
[5] = dogs; cited from earlier work
[6] = Solubility of KPT-335 (pH dependence, unpublished data); format: physicochemical
[7] = dogs, orally 1.25 mg/kg BW (n = 4) ref 13
[8] = dogs, orally 1.5 mg/kg BW (n = 4) ref 13
[9] = healthy dogs, phase I study, 1.5 mg/kg BW ref 9

O=C(/C=C\n1cnc(-c2cc(C(F)(F)F)cc(C(F)(F)F)c2)n1)NNc1ccccn1 [KPT-335]
maximum safe dosage [1]: 2.33 mg/kg BW | AUClast ([2]; dogs, 1.5 mg/kg BW ref 9, 13): 1800–2,300 h·ng/mL | Cmax ([2]; dogs, 1.5 mg/kg BW ref 9, 13): 250 to 310 ng/mL | half-life ([2]; dogs, 1.5 mg/kg BW ref 9, 13): approximately 4 h | mean AUC [2, 7]: 1576.6 ng·h/mL | mean Cmax [2, 7]: 244.8 ng/mL | mean AUC [2, 8]: 2346.8 ng·h/mL | mean Cmax [2, 8]: 312 ng/mL | AUClast [2, 9]: 1760 ± 223 ng·h/mL | Cmax [2, 9]: 253 ± 88.3 ng/mL | T1/2 [2, 9]: 3.88 ± 2.71 h | adverse reactions [3]: no adverse reactions | pKa [4]: 10.6 | maximum safe dosage [5]: 1.75 mg/kg BW | aqueous solubility [6]: low aqueous solubility | lower solubility at pH 3.8 versus pH 1.5 ([6]; unpublished data): 50 fold
